# In patent publication US20080014253A1, “Lipid-Based Drug Delivery Systems Containing Unnatural Phospholipase A2 Degradable Lipid Derivatives and the Therapeutic Uses Thereof” (priority 2004, published 2008):
# Molecular target: T1, PLA2 (A. piscivorus piscivorus) (Agkistrodon piscivorus piscivorus, UniProt P51972)
# T1 sequence (P51972 1-123): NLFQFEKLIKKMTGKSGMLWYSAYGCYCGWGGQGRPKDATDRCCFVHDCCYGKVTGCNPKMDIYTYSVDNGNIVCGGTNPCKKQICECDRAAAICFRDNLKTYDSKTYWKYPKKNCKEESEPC
# Experiment: PLA2 hydrolysis of unilamellar liposomes (lag time, degree of lipid hydrolysis by HPLC)
# Format: biochemical
# Conditions: for degree of PLA2 lipid hydrolysis: 1000 s after the unset of the burst, HPLC, broad temperature range
# Protocol: FIG. 4. Characteristic reaction time profiles at 40° C. for PLA2 hydrolysis of unilamellar. (A) 0.15 mM 1-O-DPPC′ liposomes incubated with 150 nM PLA2 (A. piscivorus piscivorus). (B) 0.15 mM 1-O-DPPG′ liposomes incubated with human secretory PLA2 from 20 μL freshly prepared human tear fluid (B). The PLA2 hydrolysis reaction is monitored by intrinsic fluorescence (solid line) from the enzyme and 90° static light scattering (dashed lines) from the lipid suspension. After adding PLA2 to the equilibrated liposome suspension a characteristic lag time, τ, follows before a sudden increase in the catalytic activity takes place (A).
# FIG. 5. PLA2 (A. piscivorus piscivorus) lag time, τ, as a function of temperature for the hydrolysis of 1-O-DPPC′ unilamellar liposomes incorporated with 0 mol % (▪), 2 mol % (▴), and 10 mol % (∘) 1-O-DPPG′ lipids, and 5 mol % (V) DSPE-PEG2000 polymer lipids. The concentration of the liposomes was 0.15 mM and the concentration of PLA2 was 150 nM.
# FIG. 6. (A) PLA2 (A. piscivorus piscivorus) hydrolysis of 1-O-DPPC′ liposomes containing 0 mol % (▪), 2 mol % (▴), and 10 mol % (∘) 1-O-DPPG′ lipids, and 5 mol % (▾) DSPE-PEG2000 polymer lipids determined by HPLC [28]. The percent lipid hydrolysis is determined 1000 s after the unset of the burst. The concentration of the liposomes was 0.15 mM and the concentration of PLA2 was 150 nM. (B) Hydrolysis of 1-O-DPPG′ unilamellar liposomes determined by HPLC [28]. The PLA2 catalyzed lipid hydrolysis is determined as a function of time after addition of 20 μL freshly prepared human tear fluid to 0.15 mM 1-O-DPPG′ liposomes.
# By replacing the ester linkage in the C-1 position with an ether bond, these unnatural phospholipids can furthermore be used as novel prodrug anticancer lipids to make liposomal microcarriers that can be degraded to active anticancer lysoetherlipids by PLA2 [27]. […] The PLA2 lag time measurements on 1-O-DPPC′ unilamellar liposomes incorporated with small amounts of 1-O-DPPG′ or DSPE-PEG2000 lipids were performed in the gel-to-fluid main phase transition range and the degree of lipid hydrolysis was analyzed using HPLC techniques.
# Typical PLA2 (A. piscivorus piscivorus) hydrolysis time course profiles obtained at 40° C. are shown in FIG. 4 for 1-O-DPPC′ and 1-O-DPPG′ unilamellar liposomes. […] The rapid increase in PLA2 activity is reflected by a sharp rise in the intrinsic PLA2 tryptophan fluorescence intensity followed by a concomitant decrease in the 90° static light scattering caused by a change in the morphology of the lipid system when a large amount of the phospholipids are converted to non-bilayer forming lysolipids and free fatty acids. […] Both the fluorescence and light scattering data clearly indicate that the unnatural phospholipids are excellent substrates for PLA2 catalyzed hydrolysis. […]
Molecule,"PLA2 lag time, τ (0.15 mM unilamellar liposomes, 150 nM PLA2, 40° C.)",PLA2 lag time (1-O-DPPC′ liposomes incorporated with 5 mol % DPPE-PEG2000 lipopolymers),degree of PLA2 lipid hydrolysis
"CCCCCCCCCCCCCCCCOC[C@@H](COC(=O)CCCCCCCCCCCCCCC)OP(=O)([O-])OCC[N+](C)(C)C [1-O-DPPC′, (S)-1-O-hexadecyl-3-hexadecanoyl-glycero-2-phosphocholine]",observed,very short lag time,remarkably high degree of lipid hydrolysis
(S)-1-O-hexadecyl-3-hexadecanoyl-glycero-2-phosphoglycerol [1-O-DPPG′],–,–,remarkably high degree of lipid hydrolysis
